Source: patent publication US11123033B2, “Molecular imaging method for evaluating liver regeneration capacity after ALPPS operation” (Harbin Medical University, priority 2019, dated 2021)

Tested on: rabbit VX2 liver cancer model
Assay: 18F-FCH PET/CT imaging of residual liver after first-stage ALPPS
Type: in vivo
Settings: ALPPS group
Excerpt: using incision and fragmentation method for liver cancer tissues; first inoculating a VX2 tumor strain into the muscle outside the rabbit hind leg after passage, wherein the tumor grows to a diameter of 2.0-3.0 cm after 3 weeks; removing the tumor in the muscle of the rabbit hind, eliminating the necrotic tissue, selecting fish-like tissue at the edge of the tumor, and using ophthalmic scissors to cut the tumor tissue into tissue blocks of 1 mm3, and washing repeatedly with saline and putting in a sterile Petri dish for use; putting an experimental rabbit into general anesthesia (method of anesthesia: intramuscular injection of Shutai 1 ml) and fixing it on an animal operating table in supine position; performing skin preparation, disinfection, and spreading sterile surgical scarves on a surgical region of a rabbit abdomen; injecting lidocaine into linea alba 1 cm below xiphoid process for local anesthesia, and making a midline incision of 4 to 5 cm in an upper abdomen and cutting abdominal wall layer by layer to expose a left lateral lobe of a liver; cutting a thicker liver lobe to form a hole passage of about 3 mm×3 mm, and implanting 3-5 tumors into it, then filling liver incision with gelatin sponge particles and pressing to stop bleeding, followed by suturing the incision and closing the abdomen.
two weeks after implanting the rabbit liver with the VX2 tumor strain, performing the first stage of ALPPS (i.e. associating liverpartition and portal vein ligation for staged hepatectomy) on tumor-bearing rabbits;
dividing the tumor-bearing rabbits randomly into an ALPPS group (the left branch of the portal vein of the liver is ligated, and the liver parenchyma is dissected along the ischemic line between the left middle lobe of the liver and the right lobe of the liver) and a Sham group (i.e., a sham operation group, no portal vein ligation and liver dissection); fasting rabbits in the ALPPS group for 12 hours before surgery, and fixing on the table in the supine position after general anesthesia, and performing skin preparation in the surgical region; injecting lidocaine into the left under the xiphoid process, opening the abdomen after anesthesia around the incision with an incision length of about 5-7 cm, exposing and separating the left branch of the portal vein and ligating with 4-0 surgical sutures, then after an ischemic line between the left and right liver is formed, using the surgical scissors to cut off the liver parenchyma along the ischemic line; filling the partition with gel sponge particles for hemostasis, after no obvious bleeding, closing the abdominal wall incision layer by layer, closing the abdominal cavity, and disinfecting the incision with iodophor. […]

C[N+](C)(C[18F])CCO [18 F-FCH, [18 F] fluoromethylcholine]
18 F-FCH intake in the residual liver (after 14 days): decreases slightly | 18 F-FCH uptake in the residual liver tissue (first 3 days after surgery): increases rapidly | 18 F-FCH uptake in the residual liver tissue (from the 1st postoperative day, PET/CT 1 h after 37 MBq/kg i.v.): significant high uptake | time at which 18 F-FCH uptake reaches a peak (residual liver, days after surgery): around 7 days
